Patent US20260356834A1, “ANTICONVULSIVE COMPOUNDS AND USES THEREOF” (Jazz Pharmaceuticals Research UK Limite, priority 2023, published 2026)
Where “and” joins values, the source holds several entries; their conditions need not be identical. Equal values may be shown once. Marks after values point to notes of the source that are not given here.

System: C57BL/6J mice
Assay: mouse maximal electroshock seizure threshold model (MEST)
Assay type: in vivo
Procedure: Vehicle=1:2:17 ethanol:Solutol® (Kolliphor® HS 15):saline: 1 mL of ethanol and 2 mL of solutol were warmed to 60 °C and 17 mL of 0.9% saline was added slowly. […]
Vehicle=0.5% HPMC and 0.1% Tween 80:0.5% HPMC and 0.1% Tween 80 in water.

[1] = 10 mg/kg p.o., 30 min, HPMC vehicle
[2] = 10 mg/kg p.o., 30 min, vs HPMC vehicle
[3] = 50 mg/kg p.o., 30 min, HPMC vehicle

Structure (SMILES) | CC50 +/− SEM (5 mg/kg p.o., 15 min, HPMC vehicle) | Change from vehicle (CC50) (5 mg/kg p.o., 15 min, vs HPMC vehicle) | CC50 +/− SEM [1] | Change from vehicle (CC50) [2] | CC50 +/− SEM (25 mg/kg p.o., 15 min, HPMC vehicle) | Change from vehicle (CC50) (25 mg/kg p.o., 15 min, vs HPMC vehicle) | CC50 +/− SEM (25 mg/kg p.o., 30 min, HPMC vehicle) | Change from vehicle (CC50) (25 mg/kg p.o., 30 min, vs HPMC vehicle) | CC50 +/− SEM [3] | CC50 +/− SEM (100 mg/kg p.o., 30 min, HPMC vehicle) | Change from vehicle (CC50) (100 mg/kg p.o., 30 min, vs HPMC vehicle) | CC50 +/− SEM (1 mg/kg i.p., 15 min, 1:2:17 ethanol:Solutol:saline) | Change from vehicle (CC50) (1 mg/kg i.p., 15 min, vs 1:2:17 ethanol:Solutol:saline vehicle) | CC50 +/− SEM (5 mg/kg i.p., 15 min, 1:2:17 ethanol:Solutol:saline) | Change from vehicle (CC50) (5 mg/kg i.p., 15 min, vs 1:2:17 ethanol:Solutol:saline vehicle) | CC50 +/− SEM (30 mg/kg i.p., 30 min, 1:2:17 ethanol:Solutol:saline) | Change from vehicle (CC50) (30 mg/kg i.p., 30 min, vs 1:2:17 ethanol:Solutol:saline vehicle) | Change from vehicle (CC50) (50 mg/kg p.o., 30 min, vs HPMC vehicle) | CC50 +/− SEM (60 mg/kg i.p., 30 min, 1:2:17 ethanol:Solutol:saline) | Change from vehicle (CC50) (60 mg/kg i.p., 30 min, vs 1:2:17 ethanol:Solutol:saline vehicle)
CCCc1cc(O)c(-c2c(C)c(Cl)cn3ccnc23)c(O)c1 [Compound 4, 2-(6-Chloro-7-methylimidazo[1,2-a]pyridin-8-yl)-5-propylbenzene-1,3-diol] | 23.5 ± 2.1 mA | 11% | 22.5 ± 0.3 mA | 14% | 27.5 ± 1.3 mA | 32%** | 60.8 ± 2.9 mA | 132%*** | 92.5 ± 3.2 mA and 125.0 ± 33.4 mA | 200.0 ± 3.7 mA | 860%*** |  |  |  |  |  |  |  |  | 
CCCc1cc(O)c(-c2c(C)ccn3ccnc23)c(O)c1 [Compound 2, 2-(7-Methylimidazo[1,2-a]pyridin-8-yl)-5-propylbenzene-1,3-diol] |  |  | 27.0 ± 0.7 mA | 17%*** |  |  |  |  | 38.2 ± 0.5 mA |  |  | 26.0 ± 0.4 mA | 11%^### | 29.4 ± 0.9 mA | 26%^### | 38.2 ± 1.5 mA | 64%^### | 66%*** | 59.5 ± 2.6 mA | 155%^###
